Columns and labels:
[1] = Cytotoxicity against human HEK293T cells assessed as cell growth inhibition measured for 30 mins by WST assay; format: toxicity, cell-based, HEK-293T
[2] = Inhibition of HIV-1 Integrase transfected in human HEK293T cells measured after 48 hrs by bright-glo luciferase assay; format: cell-based; details: Human immunodeficiency virus 1, HEK-293T
[3] = Cytotoxicity against human HEK293T cells assessed as cell growth inhibition by MTT assay; format: toxicity, cell-based, HEK-293T
[4] = Inhibition of HIV-1 Integrase transfected in human HEK293T cells measured after 48 hrs by luminometer analysis; format: cell-based, Human immunodeficiency virus 1

SMILES | CC50 at 0.5 h [1] [µM] | IC50 [2] [µM] | CC50 [3] [µM] | IC50 [4] [µM]
CCCCCCCCC(=O)Cc1occ2c1[C@@H](O)[C@@H]1O[C@@H]1[C@@H]2O | > 250 | 40 | – | –
CCCCCCCCC(=O)C[C@H]1OCC2=C1[C@@H](O)[C@@H]1O[C@@H]1[C@@H]2O | > 250 | 95 | – | –
CCCCCCCCC(=O)C[C@H]1OC(=O)C2=C1[C@@H](O)[C@@H]1O[C@@H]1[C@@H]2O | > 250 | 56 | – | –
CCCCCCCCC(=O)C[C@@H]1OC(=O)C2=C1[C@@H](O)[C@@H]1O[C@@H]1[C@@H]2O | > 250 | 2.5 | – | –
O=C(CCCCCCCCO)C[C@H]1OCC2=C1[C@@H](O)[C@@H]1O[C@@H]1[C@@H]2O | > 250 | 112 | – | –
COc1cc2c(cc1Cc1cccc(Cl)c1F)c(=O)c(C(=O)O)cn2[C@H](CO)C(C)C [ELVITEGRAVIR] | – | – | > 250 | 3.8
